Here are results for 2 substances from patent publication US7977064B2, “Disheveled PDZ modulators” (Genentech, Inc., priority 2006, dated 2011).

“Also recorded” adds a separate entry of the source. No end group written: not given here.

Test [1] deals with β-catenin protein level in HEK293S cells. Nature of the test: Western blot of β-catenin protein level in HEK293S cells. It is filed as cell-based. The settings on record: 20 μM peptide, 24 hours, compared to DMSO and PEN. The protocol:
HEK293S cells were treated with 20 μM DVLp and PEN for 24 hours. Cell lysate was prepared and subjected to SDS-PAGE. β-catenin was blotted by poly-clonal anti-β-catenin (Genentech, Inc., South San Francisco).
(§1) Cell culture, transfection and peptide treatment: HEK293 and H1703 were propagated according to the instructions from American Type Culture Collection. HEK293 cells were transfected with FuGene6 according to the manufacturer's instructions (Roche Molecular Biochemicals) at cell confluence of 50%. H1703 cells were transfected with Lipofectamine according to manufacturer's instruction at cell confluence of 80%. Cells were treated with medium containing peptide (5 μM-40 μM) 24 hours after transfection, and were routinely harvested 24 hours after the peptide treatment for additional assays.
Western Blot: Harvested cells were lysed with SIC lysis buffer, the supernatant was subjected to SDS-PAGE, which was transferred, blocked and blotted with proper primary antibody by a standard western blot protocol. Fluorescence labeled secondary antibodies (Alexa goat anti-mouse or anti-rabbit) were added and the results were analyzed by Li-core™.

In test [2] the test system is Wnt3a-stimulated β-catenin signaling in HEK293S cells. Nature of the test: TOPGLOW luciferase reporter assay in HEK293S cells. It is filed as cell-based. The protocol:
HEK293S cells were transfected with the reporter plasmid pTOPGLOW combined with pRL reporter. Cell extract was prepared and the luciferase activity was measured. The relative luciferase unit (RLU) is TopGlow luciferase activity divided by Renila luciferase activity. The fold of activation is the RLU ratio between the Wnt3a-stimulated and non-stimulated cells. Cells were treated with either 10 μM (light bar) or 20 μM (dark bar) peptide ligands.
as §1
(§2) TOPGLOW assay: Cells were plated in 12-well plates. The TOPGLOW reporter plasmid was transfected transiently into cells as described above. TCF-mediated gene transcription was determined by pTOPGLOW luciferase activity, which was normalized to relative luciferase activities of pRL reporter (cotransfected internal control). All experiments were performed duplicated.
For orientation: In a reporter assay the amount or activity of a reporter protein is the signal.

Test [3] has as its system Wnt-stimulated β-catenin signaling in NCI-H1703 cells. Nature of the test: TOPGLOW luciferase reporter assay in NCI-H1703 cells. The class given is cell-based, human. The protocol: NCI-H1703 cells were transfected with the reporter plasmid pTOPGLOW combined with pRL reporter. Cell extract was prepared and the luciferase activity was measured. The relative luciferase unit is TopGlow luciferase activity divided by Renila luciferase activity. The fold of activation is the RLU ratio between the Wnt3a-stimulated or non-stimulated cells.
as §1, §2

The subject of the next test is NCI-H1703 cells. Description: Alamar Blue cell viability and growth assay. It is filed as cell-based, human. Here is the method:
Cells were seeded in black wall 96-well plate in triplicate and treated with various doses of peptide on Day 0 and were incubated at 37° C. in a humid incubator with 5% CO2. After 72 hours, Alamar Blue assay was performed.
Cells were seeded in black wall 96-well plate in triplicate and treated with 10 μM peptide or DMSO on Day 0, and the cell viability was measured by Alamar Blue assay after 24, 48 and 72 hours.
Cell viability assay: Cells were seeded in black wall 96-well plate in triplicate and treated with various doses of peptide on Day 0 and were incubated at 37° C. in a humid incubator with 5% CO2. After 72 hours, Alamar Blue assay was performed according to the instruction from manufacturer. For cell growth profile, the cells were seeded in black wall 96-well plate in triplicate and treated with 10 μM peptide or DMSO on Day 0, and cell viability was measured by Alamar Blue assay after 24, 48 and 72 hours.
A general note: Resazurin is reduced to fluorescent resorufin, in cell work by metabolically active cells.

A further test deals with T1, Dvl1 (Homo sapiens, UniProt O14640).
T1 construct: All three endogenous Dvl could be detected in crude cell lysate of HEK293, and could be pulled down by GST-Dvlpep; endogenous in cells; host or cells: HEK293S
T1 sequence (O14640 1-695): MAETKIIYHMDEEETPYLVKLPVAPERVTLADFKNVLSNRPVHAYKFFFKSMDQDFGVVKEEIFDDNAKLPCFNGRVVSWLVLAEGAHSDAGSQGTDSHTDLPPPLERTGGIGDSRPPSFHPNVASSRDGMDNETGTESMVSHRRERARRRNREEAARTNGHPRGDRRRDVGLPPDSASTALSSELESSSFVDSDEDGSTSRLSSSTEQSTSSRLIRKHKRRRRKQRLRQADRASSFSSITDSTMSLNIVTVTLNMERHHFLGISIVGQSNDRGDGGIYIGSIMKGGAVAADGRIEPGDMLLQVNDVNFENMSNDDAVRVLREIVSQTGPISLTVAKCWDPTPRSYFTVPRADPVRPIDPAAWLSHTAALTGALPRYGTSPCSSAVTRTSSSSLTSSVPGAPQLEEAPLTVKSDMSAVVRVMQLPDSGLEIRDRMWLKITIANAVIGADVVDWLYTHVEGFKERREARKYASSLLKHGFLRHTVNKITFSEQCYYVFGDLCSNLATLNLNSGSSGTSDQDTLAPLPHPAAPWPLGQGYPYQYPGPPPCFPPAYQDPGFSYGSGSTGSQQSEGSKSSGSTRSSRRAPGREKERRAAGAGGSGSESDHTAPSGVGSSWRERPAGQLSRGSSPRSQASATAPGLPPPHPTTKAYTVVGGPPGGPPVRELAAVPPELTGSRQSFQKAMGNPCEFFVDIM
Description: GST pull-down from HEK293S cell extract, blot with anti-Dvl1. The class given is binding. To be noted: HEK293 cell lysate, glutathione Sepharose-4B beads. Here is the method:
(§3) Cell lysate of HEK293S cell was prepared and the whole protein concentration was normalized to 1 mg/ml. GST or GST-DVLpep fusion protein was bound to glutathione Sepharose-4B. Beads carrying protein (2-10 μg) were incubated with cell extract of HEK293S cells overnight at 4° C. The beads were washed with washing buffer (PBS, 0.5% BSA, 0.1% Tween 20) for 10 times and resuspended in SDS sample buffer, incubated at 90° C. for 10 min and the supernatant was subjected to SDS-PAGE. The crude cell extract was also subjected to the same SDS-PAGE. Dvl proteins were blotted by anti-Dvl1, anti-Dvl2, and anti-Dvl3.
(§4) Pull-down Assays—GST or GST-DVLpep fusion protein (GST fused with peptide GGGKWYGWL (SEQ ID NO: 182) at its C-terminus) was bound to glutathione Sepharose-4B following standard protocols, and bound proteins were quantified by SDS-PAGE using known amounts of BSA as standards. Beads carrying protein (2-10 μg) were incubated with cell extract of HEK293S cell overnight at 4° C. The cell extracts were prepared by lysing the cell in SJC lysis buffer. The whole protein concentration was determined by BCA protein kit (Promega; Madison, Wis.) and normalized to 1 mg/ml. […] Bound proteins were blotted by anti-Dvl1, anti-Dvl2 and anti-Dvl3 and analyzed by Li-core™.

A further test concerns the target T2, Dvl3 (Homo sapiens, UniProt Q92997).
T2 construct: All three endogenous Dvl could be detected in crude cell lysate of HEK293, and could be pulled down by GST-Dvlpep; endogenous in cells; host or cells: HEK293S
T2 sequence (Q92997 1-716): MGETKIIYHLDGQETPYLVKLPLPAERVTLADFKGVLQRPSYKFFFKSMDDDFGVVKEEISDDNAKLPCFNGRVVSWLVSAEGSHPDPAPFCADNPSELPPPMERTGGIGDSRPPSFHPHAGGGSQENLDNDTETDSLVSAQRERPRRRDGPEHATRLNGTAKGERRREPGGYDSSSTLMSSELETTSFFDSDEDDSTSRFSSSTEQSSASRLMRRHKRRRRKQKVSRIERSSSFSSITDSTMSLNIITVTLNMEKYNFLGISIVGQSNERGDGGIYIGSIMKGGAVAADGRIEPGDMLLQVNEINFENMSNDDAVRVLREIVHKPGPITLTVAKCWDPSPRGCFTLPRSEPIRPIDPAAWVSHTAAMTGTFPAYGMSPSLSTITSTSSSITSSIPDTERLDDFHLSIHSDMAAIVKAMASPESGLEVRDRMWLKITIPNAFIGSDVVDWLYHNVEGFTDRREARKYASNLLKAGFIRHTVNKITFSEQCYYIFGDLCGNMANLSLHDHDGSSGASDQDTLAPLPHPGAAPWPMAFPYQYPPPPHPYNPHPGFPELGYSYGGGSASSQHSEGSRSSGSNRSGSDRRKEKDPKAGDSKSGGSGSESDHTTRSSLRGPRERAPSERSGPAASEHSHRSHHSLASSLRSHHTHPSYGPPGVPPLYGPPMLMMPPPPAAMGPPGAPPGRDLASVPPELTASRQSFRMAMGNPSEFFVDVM
Nature of the test: GST pull-down from HEK293S cell extract, blot with anti-Dvl3. The class given is binding. The settings on record: HEK293 cell lysate, glutathione Sepharose-4B beads. Here is the method:
as §3, §4

A further test deals with T3, Dvl2 (Homo sapiens, UniProt O14641).
T3 construct: All three endogenous Dvl could be detected in crude cell lysate of HEK293, and could be pulled down by GST-Dvlpep; endogenous in cells; host or cells: HEK293S
T3 sequence (O14641 1-736): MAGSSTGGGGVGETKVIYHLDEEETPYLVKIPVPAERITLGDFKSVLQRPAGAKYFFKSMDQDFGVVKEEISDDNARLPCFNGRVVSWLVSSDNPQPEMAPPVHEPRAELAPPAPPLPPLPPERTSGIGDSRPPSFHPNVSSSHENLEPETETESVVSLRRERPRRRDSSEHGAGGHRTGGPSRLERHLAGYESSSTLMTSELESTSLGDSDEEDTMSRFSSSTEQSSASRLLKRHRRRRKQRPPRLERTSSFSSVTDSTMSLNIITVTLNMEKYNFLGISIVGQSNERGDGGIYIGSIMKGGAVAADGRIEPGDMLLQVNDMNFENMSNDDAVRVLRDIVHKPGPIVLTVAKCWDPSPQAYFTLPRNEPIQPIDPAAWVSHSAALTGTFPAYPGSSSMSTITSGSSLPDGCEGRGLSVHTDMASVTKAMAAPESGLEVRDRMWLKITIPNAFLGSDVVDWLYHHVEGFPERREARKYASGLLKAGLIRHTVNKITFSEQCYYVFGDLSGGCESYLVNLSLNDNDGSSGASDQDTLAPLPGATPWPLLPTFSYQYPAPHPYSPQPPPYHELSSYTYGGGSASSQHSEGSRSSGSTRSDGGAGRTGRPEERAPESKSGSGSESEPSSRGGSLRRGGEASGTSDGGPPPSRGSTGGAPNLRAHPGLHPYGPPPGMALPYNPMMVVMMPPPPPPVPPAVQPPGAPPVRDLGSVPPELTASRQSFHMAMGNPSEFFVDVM
Nature of the test: GST pull-down from HEK293S cell extract, blot with anti-Dvl2. It is filed as binding. The settings on record: HEK293 cell lysate, glutathione Sepharose-4B beads. Here is the method: as §3, §4

In the case of Ac-RQIKIWFQNRRMKWKKKWYGWL [DVLp_C], the “β-catenin level in whole cell lysate upon Wnt3a stimulation” value in test [1] is given as “significantly lower β-catenin levels; also recorded: reduced the Wnt-stimulated increase in β-catenin protein level”. Moreover, in test [2] (HEK293S cells, peptide up to 20 μM in medium), the “Effect on Wnt3a-stimulated transcriptional activity (TopGlow)” value is reported as “inhibited Wnt3a-stimulated transcriptional activity significantly; also recorded: significantly blocked the Wnt-stimulated increase in β-catenin signaling”. The “Dose dependence of inhibition of Wnt-stimulated β-catenin signaling” value in test [2] (HEK293S cells, two independent experiments) is “dose-dependent”. For the same substance, the “Inhibition of Wnt3a-stimulated transcriptional activity” value in test [2] (HEK293 cells, peptide 5-20 μM) is listed as “about 50%”. Also, the “Effect on Wnt-stimulated β-catenin signaling / Tcf-stimulated transcriptional activity (TopGlow)” value in test [3] is “inhibited by DVLp_C treatment significantly; also recorded: blocked the Wnt-stimulated increase in β-catenin signaling”. Further, the Cell growth profile result in the test on NCI-H1703 cells (NCI-H1703, 10 μM peptide, 24, 48 and 72 hours) is “much slower than that of DMSO or PEN-treated cells; also recorded: effectively suppressed the cell growth”. In addition, the “Cell viability with Wnt3a stimulation” value in the test with NCI-H1703 cells (NCI-H1703, 72 hours, peptide dose of 5 μM) is “lower viability of DVLp_C-treated cells compared to PEN-treated cells”. Further, the “Cell viability without Wnt3a stimulation” value in the test on NCI-H1703 cells (NCI-H1703, 72 hours, peptide dose over 10 μM) was “much lower viability than PEN-treated cells”.

For “GST-Dvlpep: GST fused with peptide GGGKWYGWL (SEQ ID NO: 182) at its C-terminus ({GST}-GGGKWYGWL)”, the “Pull-down of endogenous Dvl1” value with Dvl1 is given as “pulled down”. Further, in the test with Dvl3, the “Pull-down of endogenous Dvl3” value is “pulled down”. Besides, the “Pull-down of endogenous Dvl2” value in the test with Dvl2 is listed as “pulled down”.
